Results from the NIST ThermoML archive (doi:10.1021/je0601816).

Test: xn = mol fraction of the nth substance listed
Details: 100 kPa, Liquid, Taylor dispersion method, x1 = 0

Row | SMILES | binary diffusion coefficient (273.2 K) [m2/s] | binary diffusion coefficient (293.2 K) [m2/s] | binary diffusion coefficient (298.2 K) [m2/s] | binary diffusion coefficient (313.2 K) [m2/s] | binary diffusion coefficient (333.2 K) [m2/s] | binary diffusion coefficient (353.2 K) [m2/s]
1 | O=C[C@H](O)[C@@H](O)[C@@H](O)[C@H](O)CO [(+)-galactose] + O | 3.19e-10 | 6.25e-10 | 7.06e-10 | 1.01e-09 | 1.51e-09 | 2.17e-09
2 | O=C[C@H](O)[C@@H](O)[C@H](O)[C@H](O)CO [D-glucose] + O | 3.23e-10 | 6.05e-10 | 6.76e-10 | 9.97e-10 | 1.49e-09 | 2.13e-09
3 | O=C[C@@H](O)[C@@H](O)[C@H](O)[C@H](O)CO [D-mannose] + O | 3.34e-10 | 6.2e-10 | 7.04e-10 | 1.02e-09 | 1.59e-09 | 2.16e-09
4 | OC[C@H]1O[C@@](CO)(O[C@H]2O[C@H](CO)[C@@H](O)[C@H](O)[C@H]2O)[C@@H](O)[C@@H]1O [D-sucrose] + O | 2.55e-10 | 4.87e-10 | 5.46e-10 | 7.92e-10 | 1.17e-09 | 1.69e-09

Next, values leading:

Row | binary diffusion coefficient (273.2 K) [m2/s] | binary diffusion coefficient (293.2 K) [m2/s] | binary diffusion coefficient (298.2 K) [m2/s] | binary diffusion coefficient (313.2 K) [m2/s] | binary diffusion coefficient (333.2 K) [m2/s] | binary diffusion coefficient (353.2 K) [m2/s] | SMILES
5 | 3.59e-10 | 6.82e-10 | 7.73e-10 | 1.11e-09 | 1.67e-09 | 2.37e-09 | O=C[C@@H](O)[C@H](O)[C@H](O)CO [D-(-)-arabinose] + O
6 | 3.48e-10 | 6.65e-10 | 7.69e-10 | 1.11e-09 | 1.64e-09 | 2.33e-09 | O=C[C@H](O)[C@@H](O)[C@H](O)CO [D-xylose] + O
